# Read-outs that look alike come from different tables or passages of the source.
# Tested on: H5V cells
# Test: Phototoxicity assay (PDT efficacy at two incubation times), neutral red survival
# Assay type: cell-based, mouse
# Conditions: then 10 min illumination, 12 J/cm^2
# Description: H5V cells (40×10^3/well) were cultured in 96-well plates for 24 h to ˜80% confluence. To determine phototoxicity, the culture medium was replaced with 100 μl/well medium, in the absence or presence of 10^−8 to 10^−6 M sensitizer, and incubated in the dark for 15 min or 3 h in the culture incubator. The plates (PDT group) were then placed in the light field at room temperature and illuminated from the bottom for 10 min (800>λ>650 nm, 12 J/cm^2). After illumination, the medium was changed to fresh culture medium. The cultures were then placed in the culture incubator and cell survival was determined 24 h later, using the neutral red survival assay described below.
# Following 24 h post PDT the culture medium in the wells was replaced with 100 μl fresh medium containing 40 μg/ml neutral red. The plate was incubated for 1.5 h in a dark culture incubator. The medium was aspirated and the cells washed with 100 μl of solution containing 1% CaCl2 and 0.5% formaldehyde, which removes the unincorporated dye and fixes the cells to the substratum. The dye was then extracted from the cells into the supernatant upon addition of 100 μl 1% glacial acetic acid in 50% ethanol. After 1-2 min at room temperature, the optical density of the wells was determined in a microplate spectrophotometer using a 570 nm filter. After subtraction of assay blanks, net optical density was computed as the average value of triplicate determinations. Cell survival was calculated as the percent of the dye accumulated in the untreated control. To determine cell survival data was plotted against sensitizer concentration. These curves were then used to calculated LD50 values.
# Following synthesis, the compounds described in the Examples 23 to 75 above were purified, divided into equal aliquots and lyophilized for storage (desiccated at −20° C.). The exact material content was determined by HPLC-diode array detection, and the PDT efficacy was evaluated at two incubation times as described in the experimental section.
# [1] = 15 min incubation in the dark, read-out: IC50 15 min
# [2] = 3 h incubation in the dark, read-out: IC50 3 hours
Compound,IC50 [1],IC50 [2]
"CC[C@H]1C2=NC(=Cc3c(C(C)=O)c(C)c4[n]3[Pd][n]3c(c(C)c(C(=O)NCC(O)CO)c3=C(CC(=O)OC)C3=NC(=C4)[C@@H](C)[C@@H]3CCC(=O)NCCNCCN(CC)CC)=C2)[C@@H]1C (stereo partly drawn) [Compound 52, Palladium 3^1-oxo-15-methoxycarbonylmethyl-Rhodobacteriochlorin-13^1-(2,3-dihydroxypropyl)amide-17^3-(2-[(2-N^2-diethylaminoethyl)amino]ethyl)amide]",830 nM,890 nM
Palladium 3^1-oxo-15-methoxycarbonylmethyl-Rhodobacteriochlorin-13^1-(2-N^2-dimethylaminoethyl)amide-17^3-((R)-2-hydroxypropyl)amide [Compound 68],500 nM,160 nM
"CC(=O)O.CC[C@H]1C2=NC(=Cc3c(C(C)=O)c(C)c4[n]3[Pd][n]3c(c(C)c(C(=O)NCCN(C)C)c3=C(CC(=O)OC)C3=NC(=C4)[C@@H](C)[C@@H]3CCC(=O)NC[C@H](C)O)=C2)[C@@H]1C [Compound 69, Palladium 3^1-oxo-15-methoxycarbonylmethyl-Rhodobacteriochlorin-13^1-(2-N^2-dimethylaminoethyl)amide-17^3-((S)-2-hydroxypropyl)amide]",500 nM,160 nM
"CC(=O)O.CC[C@H]1C2=NC(=Cc3c(C(C)=O)c(C)c4[n]3[Pd][n]3c(c(C)c(C(=O)NCCCCN)c3=C(CC(=O)OC)C3=NC(=C4)[C@@H](C)[C@@H]3CCC(=O)NCC(O)CO)=C2)[C@@H]1C (stereo partly drawn) [Compound 61, Palladium 3^1-oxo-15-methoxycarbonylmethyl-Rhodobacteriochlorin-13^1-(4-aminobutyl)amide-17^3-(2,3-dihydroxypropyl) amide]",690 nM,210 nM
"CC[C@H]1C2=NC(=Cc3c(C(C)=O)c(C)c4[n]3[Pd][n]3c(c(C)c(C(=O)NCCNCCN)c3=C(CC(=O)OC)C3=NC(=C4)[C@@H](C)[C@@H]3CCC(=O)NCCNCCN)=C2)[C@@H]1C [Compound 38, Palladium 3^1-oxo-15-methoxycarbonylmethyl-Rhodobacteriochlorin-13^1, 17^3-di-(2-[(2-aminoethyl)amino]ethyl)amide]",440 nM,160 nM
"CC[C@H]1C2=NC(=Cc3c(C(C)=O)c(C)c4[n]3[Pd][n]3c(c(C)c(C(=O)NCC(O)CO)c3=C(CC(=O)OC)C3=NC(=C4)[C@@H](C)[C@@H]3CCC(=O)NCCNCCN)=C2)[C@@H]1C (stereo partly drawn) [Compound 51, Palladium 3^1-oxo-15-methoxycarbonylmethyl-Rhodobacteriochlorin-13^1-(2,3-dihydroxypropyl)amide-17^3-(2-[(2-aminoethyl)amino]ethyl)amide]",780 nM,400 nM
"CC[C@H]1C2=NC(=Cc3c(C(C)=O)c(C)c4[n]3[Pd][n]3c(c(C)c(C(=O)NCCCN(C)C)c3=C(CC(=O)OC)C3=NC(=C4)[C@@H](C)[C@@H]3CCC(=O)NCCCN(C)C)=C2)[C@@H]1C [Compound 37, Palladium 3^1-oxo-15-methoxycarbonylmethyl-Rhodobacteriochlorin-13^1, 17^3-di(3-N^2-dimethylaminopropyl)amide]",750 nM,210 nM
"CC[C@H]1C2=NC(=Cc3c(C(C)=O)c(C)c4[n]3[Pd][n]3c(c(C)c(C(=O)NCCN(C)C)c3=C(CC(=O)OC)C3=NC(=C4)[C@@H](C)[C@@H]3CCC(=O)NCC(O)CO)=C2)[C@@H]1C (stereo partly drawn) [Compound 50, Palladium 3^1-oxo-15-methoxycarbonylmethyl-Rhodobacteriochlorin-13^1-(2-N^2-dimethylaminoethyl)amide-17^3-(2,3-dihydroxypropyl)amide]",470 nM,170 nM
"CC(=O)O.CCNCCNC(=O)c1c(C)c2[n]3c1=C(CC(=O)OC)C1=NC(=Cc4c(C)c(C(C)=O)c([n]4[Pd]3)C=C3N=C(C=2)[C@H](CC)[C@H]3C)[C@@H](C)[C@@H]1CCC(=O)NCC(O)CO (stereo partly drawn) [Compound 63, Palladium 3^1-oxo-15-methoxycarbonylmethyl-Rhodobacteriochlorin-13^1-(2-N-ethylaminoethyl)amide-17^3-(2,3-dihydroxypropyl)amide]",660 nM,210 nM
Palladium 3^1-oxo-15-methoxycarbonylmethyl-Rhodobacteriochlorin-13^1-(2-N-dimethylaminoethyl)amide-17^3-(2-hydroxy ethyl)amide [Compound 65],430 nM,220 nM
"CC(=O)O.CC(=O)O.CC(=O)O.CC[C@H]1C2=NC(=Cc3c(C(C)=O)c(C)c4[n]3[Pd][n]3c(c(C)c(C(=O)NCCN(CCN)CCN)c3=C(CC(=O)OC)C3=NC(=C4)[C@@H](C)[C@@H]3CCC(=O)NCC(O)CO)=C2)[C@@H]1C (stereo partly drawn) [Compound 59, Palladium 3^1-oxo-15-methoxycarbonylmethyl-Rhodobacteriochlorin-13^1-([2-bis(2-aminoethyl)amine]ethyl)amide-17^3-(2,3-dihydroxypropyl)amide]",450 nM,190 nM
"CC[C@H]1C2=NC(=Cc3c(C(C)=O)c(C)c4[n]3[Pd][n]3c(c(C)c(C(=O)NCC(O)CO)c3=C(CC(=O)OC)C3=NC(=C4)[C@@H](C)[C@@H]3CCC(=O)NCCN)=C2)[C@@H]1C (stereo partly drawn) [Compound 47, Palladium 3^1-oxo-15-methoxycarbonylmethyl-Rhodobacteriochlorin-13^1-(2,3-dihydroxypropyl)amide-17^3-(2-aminoethyl) amide]",450 nM,250 nM
"CC[C@H]1C2=NC(=Cc3c(C(C)=O)c(C)c4[n]3[Pd][n]3c(c(C)c(C(=O)NCCN)c3=C(CC(=O)OC)C3=NC(=C4)[C@@H](C)[C@@H]3CCC(=O)NCCN)=C2)[C@@H]1C [Compound 10, Palladium 3^1-oxo-15-methoxycarbonylmethyl-Rhodobacteriochlorin-13^1, 17^3-di(2-aminoethyl)amide]",740 nM,240 nM
"CC[C@H]1C2=NC(=Cc3c(C(C)=O)c(C)c4[n]3[Pd][n]3c(c(C)c(C(=O)NCCCN(C)C)c3=C(CC(=O)OC)C3=NC(=C4)[C@@H](C)[C@@H]3CCC(=O)O)=C2)[C@@H]1C [Compound 26, Palladium 3^1-oxo-15-methoxycarbonylmethyl-Rhodobacteriochlorin-13^1-(3-N^2-dimethylaminopropyl)amide]",1000 nM,450 nM
"Palladium 3^1-oxo-15-methoxycarbonylmethyl-Rhodobacteriochlorin-13^1-(3-aminopropyl)amide-17^3-(2,3-dihydroxypropyl)amide [Compound 60]",620 nM,240 nM
"CC[C@H]1C2=NC(=Cc3c(C(C)=O)c(C)c4[n]3[Pd][n]3c(c(C)c(C(=O)NCCN(CCN)CCN)c3=C(CC(=O)OC)C3=NC(=C4)[C@@H](C)[C@@H]3CCC(=O)O)=C2)[C@@H]1C [Compound 28, Palladium 3^1-oxo-15-methoxycarbonylmethyl-Rhodobacteriochlorin-13^1-([2-bis(2-aminoethyl)amino]ethyl)amide]",1300 nM,380 nM
"CCC1C2=Cc3c(C)c(C(=O)NCCNc4ccccn4)c4[n]3[Pd][n]3c(c(C)c(C(C)=O)c3=CC(=N2)C1C)=CC1=NC(=C4CC(=O)OC)C(CCC(=O)NCC(O)CO)C1C (stereo not drawn) [Compound 57, Palladium 3^1-oxo-15-methoxycarbonylmethyl-Rhodobacteriochlorin-13^1-(2-N-(2′-pyridyl)aminoethyl)amide-17^3-(2,3-dihydroxypropyl)amide]",1330 nM,600 nM
"Palladium 3^1-oxo-15-methoxycarbonylmethyl-Rhodobacteriochlorin-13^1-(2,3-dihydroxypropyl)amide-17^3-(3-N-(2′-pyridyl)aminopropyl)amide [Compound 73]",380 nM,300 nM
"CC(=O)O.CC(=O)O.CC[C@H]1C2=NC(=Cc3c(C(C)=O)c(C)c4[n]3[Pd][n]3c(c(C)c(C(=O)NCC(O)CO)c3=C(CC(=O)OC)C3=NC(=C4)[C@@H](C)[C@@H]3CCC(=O)NCCCCNc3ccccn3)=C2)[C@@H]1C (stereo partly drawn) [Compound 74, Palladium 3^1-oxo-15-methoxycarbonylmethyl-Rhodobacteriochlorin-13^1-(2,3-dihydroxypropyl)amide-17^3-(4-N-(2′-pyridyl)aminobutyl)amide]",740 nM,290 nM
"CC[C@H]1C2=NC(=Cc3c(C(C)=O)c(C)c4[n]3[Pd][n]3c(c(C)c(C(=O)NCCN(CCN)CCN)c3=C(CC(=O)OC)C3=NC(=C4)[C@@H](C)[C@@H]3CCC(=O)NCCN(CCN)CCN)=C2)[C@@H]1C [Compound 43, Palladium 3^1-oxo-15-methoxycarbonylmethyl-Rhodobacteriochlorin-13^1,17^3-di([2-bis(2-aminoethyl)amino]ethyl)amide]",600 nM,180 nM
"CCC1C2=Cc3c(C)c(C(=O)NCCNc4ccccn4)c4[n]3[Pd][n]3c(c(C)c(C(C)=O)c3=CC(=N2)C1C)=CC1=NC(=C4CC(=O)OC)C(CCC(=O)NCCNc2ccccn2)C1C (stereo not drawn) [Compound 44, Palladium 3^1-oxo-15-methoxycarbonylmethyl-Rhodobacteriochlorin-13^1,17^3-di(2-N-(2′-pyridyl)aminoethyl)amide]",1410 nM,170 nM
